# In patent US20030229906A1, “Methods and compositions for the treatment of disorders of HIV infection” (priority 2002, published 2003):
# Experiments:
# [1] = tested on: HIVAN in transgenic mice; conditions: by inhibiting cellular Cdk9, an enzyme required for HIV-1 Tat to induce LTR-mediated virus transcription; cited from earlier work
# [2] = molecular target: Src tyrosine kinase (mouse) (UniProt P05480); test: cell-based or functional assay
Compound,effect on HIVAN in transgenic mice [1],"specific activity of the Src tyrosine kinase (immune-complex kinase assay with [gamma-32P]-ATP and enolase, podocytes transduced with Nef or vector) [2] [fold]"
CN1CC[C@H](c2c(O)cc(O)c3c(=O)cc(-c4ccccc4Cl)oc23)[C@H](O)C1 [flavopiridol],ameliorates HIVAN,–
HIV-1 Nef,–,2.3
